Experimental data from patent US20180333379A1 (priority 2018, published 2018).

How the values were obtained:
β-amyloid peptide(1-40) = target: T1, β-amyloid peptide(1-40) (Homo sapiens, UniProt P05067); conditions: cited from earlier work
T1 construct: when incubated with β-amyloid peptide(1-40); (Park, Kim, Son, & Yang, 2009)

neurons = conditions: cited from earlier work
[1] = cited from earlier work
[2] = target: T2, β-2-microglobulin aggregates (Homo sapiens, UniProt P61769); test: Citrate treatment of β-2-microglobulin aggregates (thioflavin T fluorescence microscopy); assay type: biochemical; conditions: 2 weeks, thioflavin T stain
T2 construct: purchased Lee Biosolutions, Maryland Heights, Mo
Description: (§1) In the following experiments, the concentration of thioflavin T was thirty micromolar in phosphate buffered saline (PBS), and the staining time was five minutes.
(§2) In the following experiments, an […] observer interpreted fluorescence. Interpretation of microscopic fluorescence intensity may be subject to bias. Staining times and washes were controlled.
One milliliter of β-2-microglobulin (Lee Biosolutions, Maryland Heights, Mo.) at a concentration of 1 mg/0.5 ml were mixed with two milliliters of 10 mM calcium chloride in normal saline at 37° C. for three weeks, and a precipitate formed. […] The precipitate was aspirated and stained with 10 microliters of thioflavin T, washed twice with phosphate bufferd saline (PBS), and each sample was observed under an epifluorescent microscope with B2 filter (excitation filter, 450-490 nm; barrier filter, 520 nm). (Table 1)

[3] = target: T3, amyloid β peptide(1-40) aggregates (Homo sapiens, UniProt P05067); test: Citrate treatment of amyloid β peptide(1-40) aggregates (thioflavin T fluorescence microscopy); assay type: biochemical; conditions: 48 hours, 37° C.
T3 construct: amyloid β peptide(1-40) (Abcam, Cambridge, United Kingdom); purchased Abcam, Cambridge, United Kingdom
Description: as §1, §2
A precipitate formed and the sample was centrifuged at 1500 rpm for five minutes. […] Then, five microliters of thioflavin T were added to each sample, and after five minutes, the samples were centrifuged at 1500 rpm for five minutes and washed twice with PBS. Aggregates in the micro centrifuge tubes were aspirated and observed under an epifluorescent microscope with B2 filter. (Table 3)

[4] = 280-310 milliosmoles per liter, pH 6-8, animal preparation; cited from earlier work
alpha synuclein = alpha synuclein (Homo sapiens, UniProt P37840); conditions: 10 mM calcium chloride in PBS, 37° C., four weeks
Description: Five hundred micrograms of alpha synuclein (rPeptide, LLC, Athens, Ga.) was dissolved in 400 microliters of 10 mM calcium chloride in PBS and incubated at 37° C. for four weeks.

T3 sequence (P05067 672-711 limits assumed): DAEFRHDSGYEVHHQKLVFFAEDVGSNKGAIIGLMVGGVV
T2 sequence (P61769 21-119): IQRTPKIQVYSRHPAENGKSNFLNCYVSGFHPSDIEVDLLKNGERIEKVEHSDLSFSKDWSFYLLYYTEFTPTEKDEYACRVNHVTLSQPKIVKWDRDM
T1 sequence (P05067 672-711 limits assumed): as the sequence (P05067 672-711 limits assumed) above

Compound: O=C(O)CC(O)(CC(=O)O)C(=O)O [Citrate]
- Formation of amyloid-like aggregates (β-amyloid peptide(1-40)): inhibit formation of amyloid-like aggregates
- Protection of neurons from apoptotic effects of β-amyloid peptide(1-40) (neurons): protect neurons from the apoptotic effects
- Blood brain barrier crossing ([1]; in vivo): freely crosses the blood brain barrier
- Cerebral spinal fluid to plasma concentration of citrate ([1]; in vivo): approximately two-three to one
- Average CSF concentration ([1]; normal volunteers): 0.18 mM
- Average plasma citrate concentration ([1]; normal volunteers): 0.09 mM
- CSF citrate concentration ([1]; patients with cerebrovascular disorders): ≤ 0.3 mM

Compound: O=C([O-])CC(O)(CC(=O)[O-])C(=O)[O-].[Na+].[Na+].[Na+] [Sodium citrate, sodium citrate]
- Presence of fluorescent fibrils ([2]; sodium citrate 0.01 mM): Present
- Presence of fluorescent fibrils ([2]; sodium citrate 0.1 mM): Present
- Presence of fluorescent fibrils ([2]; sodium citrate 10 mM): Absent
- Presence of fluorescent fibrils ([2]; sodium citrate 100 mM): Absent
- Presence of fluorescent fibrils ([2]; sodium citrate 1M): Present
- Thioflavin T fluorescence ([3]; sodium citrate 0.01 mM in PBS): Present
- Thioflavin T fluorescence ([3]; sodium citrate 0.10 mM in PBS): Present
- Thioflavin T fluorescence ([3]; sodium citrate 1.00 mM in PBS): Minimally present
- Thioflavin T fluorescence ([3]; sodium citrate 10.00 mM in PBS): Absent
- Effect on vertebral bone weight [4]: decreased vertebral bone weight
- Effect on weight of ligamentum flavum, dura mater, and spinal cord [4]: minimal effect

Compound: [Ca+2].[Cl-].[Cl-] [calcium chloride]
- Precipitate formation (alpha synuclein): No precipitate formed
